Tested on: not listed separately
Assay: DRUGMATRIX: Sigma2 radioligand binding (ligand: [3H] Ifenprodil)
Type: cell membranes, Rattus norvegicus, Wistar, Brain, Membrane
Settings: Not Active = under 50% inhibition at 10 µM

| Compound | IC50 | Ki |
| --- | --- | --- |
| CCCCN1CCCCC1C(=O)Nc1c(C)cccc1C.Cl (configuration not stated) [BUPIVACAINE HYDROCHLORIDE] | Not Active | Not Active |
| C[C@@]12C(=O)OC(=O)[C@]1(C)[C@H]1CC[C@@H]2O1 [CANTHARIDIN] | Not Active | Not Active |
| ClC(Cl)Cl [CHLOROFORM] | Not Active | Not Active |
| C=C1CC[C@H](O)C/C1=C/C=C1\CCC[C@]2(C)[C@@H]([C@H](C)CCCC(C)C)CC[C@@H]12 [CHOLECALCIFEROL] | Not Active | Not Active |
| C[N+](C)(C)CCO.[Cl-] [CHOLINE CHLORIDE] | Not Active | Not Active |
| CC(=O)OCC(=O)[C@@]1(O)CC[C@H]2[C@@H]3CCC4=CC(=O)CC[C@]4(C)[C@H]3C(=O)C[C@@]21C [CORTISONE ACETATE] | Not Active | Not Active |
| O=c1ccc2ccccc2o1 [COUMARIN] | Not Active | Not Active |

Biological target: cGMP-specific 3',5'-cyclic phosphodiesterase (Homo sapiens, UniProt O76074)
Assay: DRUGMATRIX: Phosphodiesterase PDE5 enzyme inhibition (substrate: [3H]cGMP + cGMP)
Type: tissue-based
Settings: platelet; Not Active = under 50% inhibition at 10 µM

| Compound | IC50 |
| --- | --- |
| CCCCN1CCCCC1C(=O)Nc1c(C)cccc1C.Cl (configuration not stated) [BUPIVACAINE HYDROCHLORIDE] | Not Active |
| C[C@@]12C(=O)OC(=O)[C@]1(C)[C@H]1CC[C@@H]2O1 [CANTHARIDIN] | Not Active |
| ClC(Cl)Cl [CHLOROFORM] | Not Active |
| C=C1CC[C@H](O)C/C1=C/C=C1\CCC[C@]2(C)[C@@H]([C@H](C)CCCC(C)C)CC[C@@H]12 [CHOLECALCIFEROL] | Not Active |
| C[N+](C)(C)CCO.[Cl-] [CHOLINE CHLORIDE] | Not Active |
| CC(=O)OCC(=O)[C@@]1(O)CC[C@H]2[C@@H]3CCC4=CC(=O)CC[C@]4(C)[C@H]3C(=O)C[C@@]21C [CORTISONE ACETATE] | Not Active |
| O=c1ccc2ccccc2o1 [COUMARIN] | Not Active |

Biological target: T1, Alpha-1A adrenergic receptor (Rattus norvegicus, UniProt P43140)
T1 sequence (P43140 whole entry): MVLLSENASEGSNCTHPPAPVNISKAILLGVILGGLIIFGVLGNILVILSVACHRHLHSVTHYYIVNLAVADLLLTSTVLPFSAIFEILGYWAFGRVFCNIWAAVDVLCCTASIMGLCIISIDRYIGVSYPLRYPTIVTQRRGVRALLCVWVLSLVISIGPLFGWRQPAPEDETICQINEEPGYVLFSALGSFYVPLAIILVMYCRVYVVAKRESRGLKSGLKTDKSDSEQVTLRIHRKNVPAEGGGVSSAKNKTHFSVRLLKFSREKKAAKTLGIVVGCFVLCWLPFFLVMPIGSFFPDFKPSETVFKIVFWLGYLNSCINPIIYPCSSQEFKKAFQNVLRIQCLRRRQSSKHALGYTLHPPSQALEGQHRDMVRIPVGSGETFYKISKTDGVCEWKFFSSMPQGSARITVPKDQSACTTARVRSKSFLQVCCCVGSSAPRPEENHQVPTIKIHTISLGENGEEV
Assay: DRUGMATRIX: Alpha-1A adrenergic receptor radioligand binding (ligand: prazosin)
Type: cell membranes, Wistar, Submaxillary gland, Membrane
Settings: Not Active = under 50% inhibition at 10 µM

| Compound | IC50 |
| --- | --- |
| CCCCN1CCCCC1C(=O)Nc1c(C)cccc1C.Cl (configuration not stated) [BUPIVACAINE HYDROCHLORIDE] | Not Active |
| C[C@@]12C(=O)OC(=O)[C@]1(C)[C@H]1CC[C@@H]2O1 [CANTHARIDIN] | Not Active |
| ClC(Cl)Cl [CHLOROFORM] | Not Active |
| C=C1CC[C@H](O)C/C1=C/C=C1\CCC[C@]2(C)[C@@H]([C@H](C)CCCC(C)C)CC[C@@H]12 [CHOLECALCIFEROL] | Not Active |
| C[N+](C)(C)CCO.[Cl-] [CHOLINE CHLORIDE] | Not Active |
| CC(=O)OCC(=O)[C@@]1(O)CC[C@H]2[C@@H]3CCC4=CC(=O)CC[C@]4(C)[C@H]3C(=O)C[C@@]21C [CORTISONE ACETATE] | Not Active |
| O=c1ccc2ccccc2o1 [COUMARIN] | Not Active |

Biological target: T2, 5-hydroxytryptamine receptor 1A (Rattus norvegicus, UniProt P19327); further: in other assays of this panel Not Active means under 50% inhibition at 10 µM
T2 sequence (P19327 whole entry): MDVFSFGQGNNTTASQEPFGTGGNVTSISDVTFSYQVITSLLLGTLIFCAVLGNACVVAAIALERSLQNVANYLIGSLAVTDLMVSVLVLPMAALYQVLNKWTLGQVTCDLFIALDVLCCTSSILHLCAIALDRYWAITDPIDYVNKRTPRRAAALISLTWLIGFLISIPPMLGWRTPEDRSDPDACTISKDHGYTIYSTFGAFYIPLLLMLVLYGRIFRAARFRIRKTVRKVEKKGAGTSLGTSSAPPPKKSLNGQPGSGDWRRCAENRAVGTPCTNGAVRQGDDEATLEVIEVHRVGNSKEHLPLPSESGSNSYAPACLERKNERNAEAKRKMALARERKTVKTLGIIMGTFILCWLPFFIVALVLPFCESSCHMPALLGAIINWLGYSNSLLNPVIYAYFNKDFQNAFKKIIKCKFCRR
Type: cell membranes, Membrane
Settings: cho-k1

| Compound | IC50 |
| --- | --- |
| CCCCN1CCCCC1C(=O)Nc1c(C)cccc1C.Cl (configuration not stated) [BUPIVACAINE HYDROCHLORIDE] | Not Active |
| C[C@@]12C(=O)OC(=O)[C@]1(C)[C@H]1CC[C@@H]2O1 [CANTHARIDIN] | Not Active |
| ClC(Cl)Cl [CHLOROFORM] | Not Active |
| C=C1CC[C@H](O)C/C1=C/C=C1\CCC[C@]2(C)[C@@H]([C@H](C)CCCC(C)C)CC[C@@H]12 [CHOLECALCIFEROL] | Not Active |
| C[N+](C)(C)CCO.[Cl-] [CHOLINE CHLORIDE] | Not Active |
| CC(=O)OCC(=O)[C@@]1(O)CC[C@H]2[C@@H]3CCC4=CC(=O)CC[C@]4(C)[C@H]3C(=O)C[C@@]21C [CORTISONE ACETATE] | Not Active |
| O=c1ccc2ccccc2o1 [COUMARIN] | Not Active |

Biological target: T3, Cytochrome P450 1A2 (Homo sapiens, UniProt P05177); further: in other assays of this panel Not Active means under 50% inhibition at 10 µM
T3 sequence (P05177 whole entry): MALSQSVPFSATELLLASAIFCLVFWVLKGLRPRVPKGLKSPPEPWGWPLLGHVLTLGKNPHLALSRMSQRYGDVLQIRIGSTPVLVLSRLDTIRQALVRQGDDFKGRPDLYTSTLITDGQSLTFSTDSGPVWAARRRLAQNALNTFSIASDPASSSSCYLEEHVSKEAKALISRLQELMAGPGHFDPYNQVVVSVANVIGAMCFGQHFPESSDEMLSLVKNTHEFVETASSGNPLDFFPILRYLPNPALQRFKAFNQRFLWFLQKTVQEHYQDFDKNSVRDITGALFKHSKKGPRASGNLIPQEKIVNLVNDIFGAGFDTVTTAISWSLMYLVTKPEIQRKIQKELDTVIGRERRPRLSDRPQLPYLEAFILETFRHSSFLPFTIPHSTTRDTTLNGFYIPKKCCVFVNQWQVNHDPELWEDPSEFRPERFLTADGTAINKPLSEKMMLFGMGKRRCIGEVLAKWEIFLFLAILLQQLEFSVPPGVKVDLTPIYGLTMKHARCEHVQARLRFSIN
Settings: bti-tn-5b1-4

| Compound | IC50 | Ki |
| --- | --- | --- |
| CCCCN1CCCCC1C(=O)Nc1c(C)cccc1C.Cl (configuration not stated) [BUPIVACAINE HYDROCHLORIDE] | Not Active | Not Active |
| C[C@@]12C(=O)OC(=O)[C@]1(C)[C@H]1CC[C@@H]2O1 [CANTHARIDIN] | Not Active | Not Active |
| ClC(Cl)Cl [CHLOROFORM] | Not Active | Not Active |
| C=C1CC[C@H](O)C/C1=C/C=C1\CCC[C@]2(C)[C@@H]([C@H](C)CCCC(C)C)CC[C@@H]12 [CHOLECALCIFEROL] | Not Active | Not Active |
| C[N+](C)(C)CCO.[Cl-] [CHOLINE CHLORIDE] | Not Active | Not Active |
| CC(=O)OCC(=O)[C@@]1(O)CC[C@H]2[C@@H]3CCC4=CC(=O)CC[C@]4(C)[C@H]3C(=O)C[C@@]21C [CORTISONE ACETATE] | Not Active | Not Active |
| O=c1ccc2ccccc2o1 [COUMARIN] | Not Active | Not Active |

Biological target: D(1A) dopamine receptor (Homo sapiens, UniProt P21728)
Sequence (P21728 whole entry): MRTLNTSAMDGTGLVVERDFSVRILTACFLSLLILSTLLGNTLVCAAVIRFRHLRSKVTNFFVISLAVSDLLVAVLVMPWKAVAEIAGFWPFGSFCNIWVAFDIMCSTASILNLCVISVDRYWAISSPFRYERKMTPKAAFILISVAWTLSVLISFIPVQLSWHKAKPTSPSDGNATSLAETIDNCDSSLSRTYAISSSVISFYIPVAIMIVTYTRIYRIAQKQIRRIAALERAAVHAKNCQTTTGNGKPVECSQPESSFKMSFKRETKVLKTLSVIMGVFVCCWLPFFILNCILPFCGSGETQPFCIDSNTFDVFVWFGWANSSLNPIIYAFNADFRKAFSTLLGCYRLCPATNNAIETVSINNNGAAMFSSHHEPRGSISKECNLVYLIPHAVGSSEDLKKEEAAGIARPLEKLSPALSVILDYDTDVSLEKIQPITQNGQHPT
Assay: DRUGMATRIX: Dopamine D1 radioligand binding (ligand: [3H] SCH-23390)
Type: cell membranes, Membrane
Settings: cho; Not Active = under 50% inhibition at 10 µM

| Compound | IC50 |
| --- | --- |
| CCCCN1CCCCC1C(=O)Nc1c(C)cccc1C.Cl (configuration not stated) [BUPIVACAINE HYDROCHLORIDE] | Not Active |
| C[C@@]12C(=O)OC(=O)[C@]1(C)[C@H]1CC[C@@H]2O1 [CANTHARIDIN] | Not Active |
| ClC(Cl)Cl [CHLOROFORM] | Not Active |
| C=C1CC[C@H](O)C/C1=C/C=C1\CCC[C@]2(C)[C@@H]([C@H](C)CCCC(C)C)CC[C@@H]12 [CHOLECALCIFEROL] | Not Active |
| C[N+](C)(C)CCO.[Cl-] [CHOLINE CHLORIDE] | Not Active |
| CC(=O)OCC(=O)[C@@]1(O)CC[C@H]2[C@@H]3CCC4=CC(=O)CC[C@]4(C)[C@H]3C(=O)C[C@@]21C [CORTISONE ACETATE] | Not Active |
| O=c1ccc2ccccc2o1 [COUMARIN] | Not Active |

Tested on: not listed separately
Assay: DRUGMATRIX: Tumor Necrosis Factor (TNF), Non-Selective radioligand binding (ligand: [125I] TNF-alpha)
Type: cell membranes, Membrane
Settings: u-937; Not Active = under 50% inhibition at 10 µM

| Compound | IC50 | Ki |
| --- | --- | --- |
| CCCCN1CCCCC1C(=O)Nc1c(C)cccc1C.Cl (configuration not stated) [BUPIVACAINE HYDROCHLORIDE] | Not Active | Not Active |
| C[C@@]12C(=O)OC(=O)[C@]1(C)[C@H]1CC[C@@H]2O1 [CANTHARIDIN] | Not Active | Not Active |
| ClC(Cl)Cl [CHLOROFORM] | Not Active | Not Active |
| C=C1CC[C@H](O)C/C1=C/C=C1\CCC[C@]2(C)[C@@H]([C@H](C)CCCC(C)C)CC[C@@H]12 [CHOLECALCIFEROL] | Not Active | Not Active |
| C[N+](C)(C)CCO.[Cl-] [CHOLINE CHLORIDE] | Not Active | Not Active |
| CC(=O)OCC(=O)[C@@]1(O)CC[C@H]2[C@@H]3CCC4=CC(=O)CC[C@]4(C)[C@H]3C(=O)C[C@@]21C [CORTISONE ACETATE] | Not Active | Not Active |
| O=c1ccc2ccccc2o1 [COUMARIN] | Not Active | Not Active |

Biological target: Delta-type opioid receptor (Homo sapiens, UniProt P41143); further: in other assays of this panel Not Active means under 50% inhibition at 10 µM
Sequence (P41143 whole entry): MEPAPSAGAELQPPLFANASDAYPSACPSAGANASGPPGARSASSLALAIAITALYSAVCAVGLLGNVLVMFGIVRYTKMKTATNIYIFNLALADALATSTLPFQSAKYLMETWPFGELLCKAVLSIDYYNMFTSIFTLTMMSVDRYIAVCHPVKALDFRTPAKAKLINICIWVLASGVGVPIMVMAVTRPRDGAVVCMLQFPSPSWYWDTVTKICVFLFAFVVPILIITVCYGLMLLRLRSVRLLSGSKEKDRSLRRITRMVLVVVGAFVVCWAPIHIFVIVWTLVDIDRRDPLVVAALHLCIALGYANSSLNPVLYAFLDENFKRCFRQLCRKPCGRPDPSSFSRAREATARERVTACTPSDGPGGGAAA
Type: cell membranes, HEK293, Membrane
Settings: hek293

| Compound | IC50 |
| --- | --- |
| CCCCN1CCCCC1C(=O)Nc1c(C)cccc1C.Cl (configuration not stated) [BUPIVACAINE HYDROCHLORIDE] | Not Active |
| C[C@@]12C(=O)OC(=O)[C@]1(C)[C@H]1CC[C@@H]2O1 [CANTHARIDIN] | Not Active |
| ClC(Cl)Cl [CHLOROFORM] | Not Active |
| C=C1CC[C@H](O)C/C1=C/C=C1\CCC[C@]2(C)[C@@H]([C@H](C)CCCC(C)C)CC[C@@H]12 [CHOLECALCIFEROL] | Not Active |
| C[N+](C)(C)CCO.[Cl-] [CHOLINE CHLORIDE] | Not Active |
| CC(=O)OCC(=O)[C@@]1(O)CC[C@H]2[C@@H]3CCC4=CC(=O)CC[C@]4(C)[C@H]3C(=O)C[C@@]21C [CORTISONE ACETATE] | Not Active |
| O=c1ccc2ccccc2o1 [COUMARIN] | Not Active |

Source: ChEMBL document CHEMBL1909046, “DrugMatrix in vitro pharmacology data”
